The values below come from patent US9370515B2, “Mixed lineage kinase inhibitors and method of treatments” (CALIFIA BIO, INC., priority 2013, dated 2016).

Some results are limits rather than exact numbers.

One may read the IC50 as the point on the concentration scale where inhibition reaches its midpoint.

Chain of MLK-3 (Q16584 whole entry): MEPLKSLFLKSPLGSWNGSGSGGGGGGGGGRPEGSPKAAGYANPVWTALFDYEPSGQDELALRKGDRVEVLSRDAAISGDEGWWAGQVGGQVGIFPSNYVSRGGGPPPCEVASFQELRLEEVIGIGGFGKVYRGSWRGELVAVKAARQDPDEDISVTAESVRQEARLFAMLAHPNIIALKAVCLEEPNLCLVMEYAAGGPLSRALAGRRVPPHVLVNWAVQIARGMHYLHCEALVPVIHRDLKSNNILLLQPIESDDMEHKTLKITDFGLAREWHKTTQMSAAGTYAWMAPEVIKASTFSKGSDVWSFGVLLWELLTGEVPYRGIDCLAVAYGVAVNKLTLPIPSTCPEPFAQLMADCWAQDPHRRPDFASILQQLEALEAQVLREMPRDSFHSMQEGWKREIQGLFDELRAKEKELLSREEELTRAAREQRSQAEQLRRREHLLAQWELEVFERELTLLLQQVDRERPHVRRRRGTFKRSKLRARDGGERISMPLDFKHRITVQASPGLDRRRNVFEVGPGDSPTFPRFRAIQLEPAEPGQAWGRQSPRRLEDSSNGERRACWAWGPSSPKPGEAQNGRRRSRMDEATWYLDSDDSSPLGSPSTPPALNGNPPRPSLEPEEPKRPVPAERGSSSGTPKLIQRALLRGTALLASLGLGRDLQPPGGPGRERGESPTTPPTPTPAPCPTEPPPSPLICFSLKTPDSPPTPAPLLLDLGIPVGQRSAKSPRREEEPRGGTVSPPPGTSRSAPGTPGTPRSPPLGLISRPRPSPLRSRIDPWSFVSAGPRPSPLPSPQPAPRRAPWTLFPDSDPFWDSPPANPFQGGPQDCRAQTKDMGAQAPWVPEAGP

The target of the assay is MLK-3 (Homo sapiens, UniProt Q16584). Description: Biochemical assay for the inhibition of kinase activity for MLK-3 (33P-ATP, HOTSPOT filter binding). The note with it: activated MLK-3 20 nM, ATP 50 μM, myelin basic protein 20 μM, 20 minutes room temperature. How it is done:
Biochemical Assay for the Inhibition of Kinase Activity for MLK-3: Myelin basic protein (20 μM final concentration) is dissolved in 20 mM Hepes (pH 7.5) containing […], […], 0.02% Brij35, 0.02 mg/ml BSA, 0.1 μM Na3VO4, 2 mM DTT, and 1% DMSO. Activated MLK-3 is added and mixed (20 nM final concentration), and inhibitors are added in DMSO. ^33P-ATP (specific activity 500 μCi/μL) is delivered into the reaction mixture to initiate the reaction (ATP concentration is 50 μM) and the mixture is incubated at room temperature for 20 minutes. % Activity is determined using a proprietary HOTSPOT™ microfluidic filter binding technology. See, Expert Opin. Drug Discov. 2008 June; 3(6): 607-621.
`COc1ccc(N(C)c2ccc3ncc(-c4cc5cc(OC)c(OC)cc5s4)n3n2)cc1OC` [Compound 75, 3-(5,6-dimethoxybenzo[b]thiophen-2-yl)-N-(3,4-dimethoxyphenyl)-N-methylimidazo[1,2-b]pyridazin-6-amine] displayed an IC50 of 100 to 500 nM.
The compound `COc1ccc(Nc2ccc3ncc(-c4cc5c(OC)c(OC)c(OC)cc5s4)n3n2)cc1OC` [Compound 76, 3-(4,5,6-trimethoxybenzo[b]thiophen-2-yl)-N-(3,4-dimethoxyphenyl)imidazo[1,2-b]pyridazin-6-amine] gave an IC50 of less than 5000 nM.
Under `Oc1cccc2cc(-c3cnc4ccc(N[C@H]5CC[C@H](O)CC5)nn34)sc12` [Compound 77] stands less than 100 nM; under `COc1ccc(Nc2ccc3ncc(-c4cc5cccc(OC(C)=O)c5s4)n3n2)cc1OC` [Compound 78, 2-(6-(3,4-dimethoxyphenylamino)imidazo[1,2-b]pyridazin-3-yl)benzo[b]thiophen-7-yl acetate], 100 to 500 nM.
Under `COc1ccc(Nc2ccc3ncc(-c4cc5cccc(O)c5s4)n3n2)cc1OC` [Compound 79, 2-(6-(3,4-dimethoxyphenylamino)imidazo[1,2-b]pyridazin-3-yl)benzo[b]thiophen-7-ol] stands less than 100 nM; under `COc1ccc(Nc2ccc3ncc(-c4cc5cccc(OC(C)C)c5s4)n3n2)cc1OC` [Compound 80, 3-(7-isopropoxybenzo[b]thiophen-2-yl)-N-(3,4-dimethoxyphenyl)imidazo[1,2-b]pyridazin-6-amine], 100 to 500 nM.
On to `CCCOc1cccc2cc(-c3cnc4ccc(Nc5ccc(OC)c(OC)c5)nn34)sc12` [Compound 81, N-(3,4-dimethoxyphenyl)-3-(7-propoxybenzo[b]thiophen-2-yl)imidazo[1,2-b]pyridazin-6-amine], for which the IC50 fell in the range of 500 to 1000 nM.
As for `COc1ccc(Nc2ccc3ncc(-c4cc5cc(OC)c(OC)c(OC)c5s4)n3n2)cc1OC` [Compound 83, 3-(5,6,7-trimethoxybenzo[b]thiophen-2-yl)-N-(3,4-dimethoxyphenyl)imidazo[1,2-b]pyridazin-6-amine], the figure is less than 5000 nM; as for `COc1ccc(Nc2ccc3ncc(-c4ccc(CO)s4)n3n2)cc1OC` [Compound 84, (5-(6-(3,4-dimethoxyphenylamino)imidazo[1,2-b]pyridazin-3-yl)thiophen-2-yl)methanol], less than 5000 nM.
As for `COc1ccc2[nH]c(-c3cnc4ccc(N[C@H]5CC[C@H](O)CC5)nn34)cc2c1` [Compound 85, trans-4-(3-(5-methoxy-1H-indol-2-yl)imidazo[1,2-b]pyridazin-6-ylamino)cyclohexanol], the figure is less than 100 nM; as for `COc1ccc2cc(-c3cnc4ccc(N[C@H]5CC[C@H](O)CC5)nn34)[nH]c2c1` [Compound 86, trans-4-(3-(6-methoxy-1H-indol-2-yl)imidazo[1,2-b]pyridazin-6-ylamino)cyclohexanol], 100 to 500 nM; as for `COc1cccc2cc(-c3cnc4ccc(N[C@H]5CC[C@H](O)CC5)nn34)[nH]c12` [Compound 87, trans-4-(3-(7-methoxy-1H-indol-2-yl)imidazo[1,2-b]pyridazin-6-ylamino)cyclohexanol], less than 100 nM.
As for `O[C@H]1CC[C@H](Nc2ccc3ncc(-c4cc5ccccc5[nH]4)n3n2)CC1` [Compound 88, trans-4-(3-(1H-indol-2-yl)imidazo[1,2-b]pyridazin-6-ylamino)cyclohexanol], the figure is 100 to 500 nM; as for `O[C@H]1CC[C@H](Nc2ccc3ncc(-c4csc5ccccc45)n3n2)CC1` [Compound 90, trans-4-(3-(benzo[b]thiophen-3-yl)imidazo[1,2-b]pyridazin-6-ylamino)cyclohexanol], 500 to 1000 nM; as for `Oc1cccc(-c2cnc3ccc(N[C@H]4CC[C@H](O)CC4)nn23)c1` [Compound 101, trans-3-(6-(4-hydroxycyclohexylamino)imidazo[1,2-b]pyridazin-3-yl)phenol], less than 5000 nM.
In the case of `Oc1ccc(-c2cnc3ccc(N[C@H]4CC[C@H](O)CC4)nn23)cc1` [Compound 102, trans-4-(6-(4-hydroxycyclohexylamino)imidazo[1,2-b]pyridazin-3-yl)phenol], the IC50 is less than 5000 nM.
In turn, `CCCN(C)c1ccc2ncc(-c3cc4ccccc4s3)n2n1` [Compound 107, 3-(benzo[b]thiophen-2-yl)-N-methyl-N-propylimidazo[1,2-b]pyridazin-6-amine] came in with an IC50 of less than 5000 nM.
The compound `OCCNc1ccc2ncc(-c3cc4ccccc4s3)n2n1` [Compound 108, 2-(3-(benzo[b]thiophen-2-yl)imidazo[1,2-b]pyridazin-6-ylamino)ethanol] returned an IC50 of 500 to 1000 nM.
As for `OCCCNc1ccc2ncc(-c3cc4ccccc4s3)n2n1` [Compound 109, 3-(3-(benzo[b]thiophen-2-yl)imidazo[1,2-b]pyridazin-6-ylamino)propan-1-ol], the figure is 100 to 500 nM.
Take `OCCCCNc1ccc2ncc(-c3cc4ccccc4s3)n2n1` [Compound 110, 4-(3-(benzo[b]thiophen-2-yl)imidazo[1,2-b]pyridazin-6-ylamino)butan-1-ol]: the IC50 lay in the range of 100 to 500 nM.
Under `Cc1nc2ccc(N[C@H]3CC[C@H](O)CC3)nn2c1-c1cc2ccccc2s1` [Compound 111, 4-(3-(benzo[b]thiophen-2-yl)-2-methylimidazo[1,2-b]pyridazin-6-ylamino)cyclohexanol] stands less than 5000 nM; under `OCCN1CCN(c2ccc3ncc(-c4cc5ccccc5s4)n3n2)CC1` [Compound 119, 2-(4-(3-(benzo[b]thiophen-2-yl)imidazo[1,2-b]pyridazin-6-yl)piperazin-1-yl)ethanol], less than 5000 nM; under `OC[C@H]1CCCN1c1ccc2ncc(-c3cc4ccccc4s3)n2n1` [Compound 126, ((R)-1-(3-(benzo[b]thiophen-2-yl)imidazo[1,2-b]pyridazin-6-yl)pyrrolidin-2-yl)methanol], less than 5000 nM.
Under `OC[C@@H]1CCCN1c1ccc2ncc(-c3cc4ccccc4s3)n2n1` [Compound 127, ((S)-1-(3-(benzo[b]thiophen-2-yl)imidazo[1,2-b]pyridazin-6-yl)pyrrolidin-2-yl)methanol] stands less than 5000 nM; under `COC(=O)C1CCCN(c2ccc3ncc(-c4cc5ccccc5s4)n3n2)C1` (centres unmarked) [Compound 131, methyl 1-(3-(benzo[b]thiophen-2-yl)imidazo[1,2-b]pyridazin-6-yl)piperidine-3-carboxylate], less than 5000 nM; under `OCC1CCCN(c2ccc3ncc(-c4cc5ccccc5s4)n3n2)C1` (centres unmarked) [Compound 132, (1-(3-(benzo[b]thiophen-2-yl)imidazo[1,2-b]pyridazin-6-yl)piperidin-3-yl)methanol], 500 to 1000 nM.
Regarding `OCCCCCNc1ccc2ncc(-c3cc4ccccc4s3)n2n1` [Compound 135, 5-(3-(benzo[b]thiophen-2-yl)imidazo[1,2-b]pyridazin-6-ylamino)pentan-1-ol], the IC50 was 100 to 500 nM.
As for `CN1CCN(CCCNc2ccc3ncc(-c4cc5ccccc5s4)n3n2)CC1` [Compound 136, 3-(benzo[b]thiophen-2-yl)-N-(3-(4-methylpiperazin-1-yl)propyl)imidazo[1,2-b]pyridazin-6-amine], the figure is less than 5000 nM.
Under `CC(CO)CCNc1ccc2ncc(-c3cc4ccccc4s3)n2n1` (centres unmarked) [Compound 138, 4-(3-(benzo[b]thiophen-2-yl)imidazo[1,2-b]pyridazin-6-ylamino)-2-methylbutan-1-ol] stands 100 to 500 nM.
